Assay results taken from ChEMBL document CHEMBL1177695, “Discovery and development of natural product-derived chemotherapeutic agents based on a medicinal chemistry approach” (J Nat Prod, 2010).
In brackets after ≈: the same amount, converted by molar mass.

Columns and labels:
[1] = Cytotoxicity against human H9 cells after 4 days by coulter counter; format: cell-based; conditions: human, H9 cells; read-out: TI
[2] = system: Human immunodeficiency virus 1; experiment: Antiviral activity against HIV1 3B infected in H9 cells assessed as inhibition of viral replication by p24 antigen ELISA; format: functional, organism-based
[3] = Cytotoxicity against human KB-7d cells after 72 hrs by MTT assay; format: functional, cell-based; conditions: KB7D; for EC50: read-out: ED50 (the source's name)
KB [4] = experiment: Cytotoxicity against human KB cells after 72 hrs by MTT assay; format: functional, cell-based; conditions: for EC50: read-out: ED50 (the source's name)
KB [5] = experiment: Cytotoxicity against human etoposide-resistant KB cells after 72 hrs by MTT assay
[6] = Cytotoxicity against human KB1 cells after 72 hrs by MTT assay; format: functional, cell-based; conditions: KB1, 72 h
PC-3 = experiment: Cytotoxicity against human PC3 cells after 3 days by sulforhodamine B assay; format: functional, cell-based; conditions: PC-3, 72 h
1A9 = experiment: Cytotoxicity against human 1A9 cells after 3 days by sulforhodamine B assay; format: functional, cell-based; conditions: 1A9, 72 h
[7] = Cytotoxicity against human KBVIN cells after 3 days by sulforhodamine B assay; format: functional, cell-based; conditions: 72 h
KB [8] = experiment: Cytotoxicity against human KB cells after 3 days by sulforhodamine B assay; format: functional, cell-based; conditions: 72 h
A-431 = experiment: Cytotoxicity against human A431 cells after 3 days by sulforhodamine B assay; format: functional, cell-based; conditions: A-431, 72 h
HCT-8 = experiment: Cytotoxicity against human HCT8 cells after 3 days by sulforhodamine B assay; format: functional, cell-based; conditions: HCT-8, 72 h
A549 = experiment: Cytotoxicity against human A549 cells after 3 days by sulforhodamine B assay; format: functional, cell-based; conditions: A549, 72 h
[9] = Therapeutic index, ratio of IC50 for human H9 cells to EC50 for HIV 3B; format: cell-based; conditions: read-out: TI
[10] = Inhibition of tubulin polymerization
[11] = system: Human immunodeficiency virus 1; experiment: Antiviral activity against HIV1 infected in human H9 cells after 4 days by p24 antigen ELISA; format: functional, organism-based; conditions: Human immunodeficiency virus 1, H9, 96 h
[12] = Therapeutic index, ratio of IC50 for human H9 cells to EC50 for HIV1; format: cell-based; conditions: read-out: TI
[13] = Human immunodeficiency virus 1, 3B, H9, read-out: EC50

In the case of `COc1cc2ccc3c(c2oc1=O)[C@@H](OC(=O)C12CCC(C)(C(=O)O1)C2(C)C)[C@@H](OC(=O)C12CCC(C)(C(=O)O1)C2(C)C)C(C)(C)O3` (some centres undefined), the selectivity ratio at 96 h [1] is reported as greater than 15 and the EC50 [2, 13] is reported as 0.03 µM.
In the case of `COC(=O)c1ccc(N[C@@H]2c3cc4c(cc3[C@@H](c3cc(OC)c(O)c(OC)c3)[C@H]3C(=O)OC[C@@H]32)OCO4)cc1`, the IC50 [3] is reported as 7 µM, the IC50 (KB [4]) is reported as 0.84 µM and the IC50 (KB [5]) is reported as 3.3 µM. It also gave an IC50 [6] of 2.5 µM.
With `COc1cc(=O)oc2c3c(ccc12)OC(C)(C)[C@H](OC(=O)C12CCC(C)(C(=O)O1)C2(C)C)[C@@H]3OC(=O)C12CCC(C)(C(=O)O1)C2(C)C` (some centres undefined) the selectivity ratio at 96 h [1] was greater than 15 and the EC50 [2, 13] was 0.05 µM.
`C[C@@H]1C[C@H](O)[C@H](O)[C@@H](O[C@H]2CC[C@]3(C=O)[C@H]4CC[C@]5(C)[C@@H](c6ccc(=O)oc6)CC[C@]5(O)[C@@H]4CC[C@]3(O)C2)O1` [KALANCHOSIDE C] showed an IC50 (PC-3) of 0.025 µg/mL (≈ 0.0457 µM), an IC50 (1A9) of 0.012 µg/mL (≈ 0.022 µM) and an IC50 [7] of 0.026 µg/mL (≈ 0.0476 µM). The IC50 (KB [8]) was 0.016 µg/mL (≈ 0.0293 µM), the IC50 (A-431) was 0.055 µg/mL (≈ 0.101 µM) and the IC50 (HCT-8) was 0.045 µg/mL (≈ 0.0823 µM). For the same compound, the IC50 (A549) was 0.006 µg/mL (≈ 0.011 µM).
In the case of `COc1cc([C@@H]2c3cc4c(cc3[C@@H](Nc3ccc(C#N)cc3)[C@H]3COC(=O)[C@H]23)OCO4)cc(OC)c1O`, the IC50 [3] is reported as 5 µM, the IC50 (KB [4]) is reported as 0.61 µM and the IC50 (KB [5]) is reported as 4 µM. It also gave an IC50 [6] of 2.7 µM.
Work on `COc1cc2c(cc1O)[C@@H](Cc1ccc(O)cc1)NCC2` yielded a selectivity ratio [9] of 125 and an EC50 [2, 13] of 2.8 µM.
Compound `COc1cc([C@@H]2c3cc4c(cc3[C@@H](Nc3ccc(N)cc3)[C@H]3COC(=O)[C@H]23)OCO4)cc(OC)c1O` has an IC50 [3] of 7.6 µM, an IC50 (KB [4]) of 0.59 µM and an IC50 (KB [5]) of 2 µM. The IC50 [6] was 3.5 µM.
With `COC(=O)C[C@@H]1C(=O)CC[C@H](C)C(=O)O[C@@H]2[C@@H]3[C@@H](OC(C)=O)[C@@]45O[C@@]3(C)COC(=O)c3cnccc3[C@@H](C)[C@@H](O)C(=O)O[C@@H]([C@H](OC(C)=O)[C@H](OC(C)=O)[C@@]4(COC1=O)[C@@H]2OC(C)=O)[C@]5(C)O` [TRIPTONINE B] the selectivity ratio [9] was greater than 1000.
`COc1cc2c(c(OC)c1OC)-c1c(cc3c(c1OC)OCO3)[C@H](OC(=O)c1ccccc1)[C@@](C)(O)[C@@H](C)C2` [GOMISIN G] showed a selectivity ratio [9] of 600 and an EC50 [2, 13] of 0.011 µM.
With `Cc1cc2c(c3oc(=O)ccc13)[C@@H](OC(=O)C13CCC(C)(C(=O)O1)C3(C)C)[C@@H](OC(=O)C13CCC(C)(C(=O)O1)C3(C)C)C(C)(C)O2` (some centres undefined) the selectivity ratio at 96 h [1] was greater than 16 and the EC50 [2, 13] was 0.008 µM.
With `COc1cc([C@@H]2c3cc4c(cc3[C@@H](Nc3ccc([N+](=O)[O-])cc3)[C@H]3COC(=O)[C@H]23)OCO4)cc(OC)c1O` the IC50 [3] was 7.7 µM, the EC50 [3] was 2 µg/mL (≈ 3.84 µM) and the IC50 (KB [4]) was 0.49 µM. It also gave an EC50 (KB [4]) of 0.2 µg/mL (≈ 0.384 µM), an IC50 (KB [5]) of 3 µM and an IC50 [6] of 6.1 µM.
Compound `COc1cc2c(c(OC)c1OC)-c1ccc(SC)c(=O)cc1[C@@H](OC(=O)Oc1ccncc1)CC2` has an IC50 [10] of 0.56 µM.
For `Cc1cc2ccc3c(c2oc1=O)[C@@H](OC(=O)C12CCC(C)(C(=O)O1)C2(C)C)[C@@H](OC(=O)C12CCC(C)(C(=O)O1)C2(C)C)C(C)(C)O3` (some centres undefined), the EC50 ([2]; h9) was “Not Active”.
Compound `CC1(C)Oc2ccc3ccc(=O)oc3c2[C@@H](OC(=O)C23CCC(C)(C(=O)O2)C3(C)C)[C@H]1OC(=O)C12CCC(C)(C(=O)O1)C2(C)C` (some centres undefined) has a selectivity ratio at 96 h [1] greater than 16.1 and an EC50 [2, 13] of 0.05 µM.
In the case of `C=C(C)[C@@H]1CC[C@]2(C(=O)O)CC[C@]3(C)[C@H](CC[C@@H]4[C@@]5(C)CC[C@H](OC(=O)C(C)(C)CC(=O)O)C(C)(C)[C@@H]5CC[C@]43C)[C@@H]12`, the IC50 [11] is reported as 15.9 µM and the selectivity ratio [12] is reported as 6.7.
For `Cc1cc2ccc(=O)oc2c2c1OC(C)(C)[C@H](OC(=O)C13CCC(C)(C(=O)O1)C3(C)C)[C@@H]2OC(=O)C12CCC(C)(C(=O)O1)C2(C)C` (some centres undefined), the selectivity ratio at 96 h [1] was greater than 16 and the EC50 [2, 13] was 0.21 µM.
In the case of `COc1cc([C@@H]2c3cc4c(cc3[C@@H](Nc3ccc(F)cc3)[C@H]3COC(=O)[C@H]23)OCO4)cc(OC)c1O`, the IC50 [3] is reported as 8.3 µM, the IC50 (KB [4]) is reported as 0.67 µM and the IC50 (KB [5]) is reported as 7.2 µM. It also gave an IC50 [6] of 4 µM.
With `C=C(C)[C@@H]1CC[C@]2(C(=O)O)CC[C@]3(C)[C@H](CC[C@@H]4[C@@]5(C)CC[C@H](OC(=O)COCC(=O)O)C(C)(C)[C@@H]5CC[C@]43C)[C@@H]12` the IC50 [11] was 11.7 µM and the selectivity ratio [12] was 1170.
`COc1cc([C@@H]2c3cc4c(cc3[C@@H](Nc3ccc(C(=O)N[C@@H](C)C(=O)OCc5ccccc5)cc3)[C@H]3COC(=O)[C@H]23)OCO4)cc(OC)c1O` showed an EC50 [3] of 0.25 µg/mL (≈ 0.367 µM) and an EC50 (KB [4]) of 0.5 µg/mL (≈ 0.735 µM).
For `O=C(C[C@H](Cc1ccc(O)c(O)c1)C(=O)O)C1=Cc2cc(O)c(O)cc2[C@H](c2ccc(O)c(O)c2)[C@H]1CC[C@H](Cc1ccc(O)c(O)c1)C(=O)O`, the selectivity ratio [9] was 33.3 and the EC50 [2, 13] was 1.9 µM.
